# Reference: patent US6867179B1, “Methods of inducing hair growth and coloration” (Trustees of Boston University, priority 1994, dated 2005)
# Test system: Keratinocytes
# Assay: Keratinocyte DNA fragmentation and cell yield after UV irradiation with NGF
# Assay type: cell-based, human
# Method: Keratinocytes were plated in 60 mm diameter tissue culture dishes in MCDB153 supplemented with epidermal growth factor (0.1 ng/ml human recombinant), insulin (5 microg/ml), hydrocortisone (0.5 microg/ml, calcium (0.15 mM), bovine pituitary extract (BPE), (2 ml per 500 ml medium), gentamicin (50 microg/ml), and amphotericin-B (50 ng/ml) (karetinocyte basal medium). Preconfluent cells were irradiated in phosphate buffered saline PBS) using a 1 KW xenon arc solar simulator (XMN 1000-21, Optical Radiation Corp., Azuza, Calif.) with 15 or 25 mJ/cm^2 UV through the petri dish plastic cover as described in Example 7. After UV irradiation, cells were maintained in their basal medium 3 days and processed as indicated. Sham irradiated control cultures were handled identically but placed under a dark cloth adjacent to the UV beam.
# Cells were washed with cold PBS and disrupted in lysis buffer pH8 (10 mM tris, 150 mM NaCl, 0.1 mM EDTA, 1% SDS, 200 µg/ml proteinase K). After 15 hour incubation at […], samples were extracted twice with phenol plus chloroform (1:1, V/V) and precipitated overnight with ethanol (2.5×volume) and 3 M sodium acetate (1/10×volume). The DNA was then digested with DNAse free ribonuclease (10 microg/ml) for one hour at 37C, separated on 1% agarose gel and stained with ethidium bromide.
# Keratinocytes were UV-irradiated as in Example 9. After irradiation cells were placed in fresh keratinocyte medium containing 50 ng/ml NGF or diluent alone. DNA fragmentation was determined as in Example 9. […] The standard (STD) is 100 bp DNA ladder (Gibco/BRL). […] UV irradiated keratinocytes were growth arrested as expected.
substance,measurement,setting,value
"NGF: nerve growth factor, neurotrophin ligand of p75 NGF-R and trk",DNA fragmentation of UV irradiated keratinocytes,50 ng/ml NGF,not fragmented
same,Increase in keratinocyte cell yields,"NGF supplemented medium, within 5 days",40%
same,Decrease in keratinocyte cell yield,"UV irradiated, 50 ng/ml NGF, within 24 hours, diluent 50%",30%
